From ChEMBL document CHEMBL1127112, “Synthesis and pharmacologic activity of hydroxyacetophenone-substituted benzophenone/xanthone leukotriene B4 receptor antagonists” (Bioorg Med Chem Lett, 1993)

Organism: Homo sapiens
Test: Compound was evaluated for inhibition of LTB4 induced chemotaxis of human neutrophils
Assay type: functional

Row | IC50 [µM] | Compound
1 | 0.32 | CCc1cc(C(C)=O)c(O)cc1OCCCOc1ccc2c(=O)c3cc(C(=O)O)ccc3oc2c1CCC(=O)O
2 | 6 | COc1ccc(/C=C/CCCCOc2ccc(C(=O)c3cccc(C(=O)O)c3)cc2CCC(=O)O)cc1
3 | 16 | CCc1cc(C(C)=O)c(O)cc1OCCCOc1ccc(C(=O)c2cccc(C(=O)O)c2)cc1CCC(=O)O
4 | 7.4 | CCc1cc(C(C)=O)c(O)cc1OCCCCCC(C)(C)c1nn[nH]n1 [LY-255283]
